{"source": "patent US3984415A", "about": "“1-Nitrophenylpyrido [2,3-d] pyrimidine-2,4(1H,3H)-diones” (Hisamitsu Pharmaceutical Co., Inc., priority 1973, dated 1976)", "key": {"[1]": {"assay": "Anti-inflammatory effect (carrageenin edema of hind paw)", "type": "in vivo, Wistar-strain male rats", "conditions": "Rattus norvegicus, po, orally, rats, 3 hours, read-out: anti-inflammatory effect (inhibition percentage of carrageenin edema)", "protocol": "2. Anti-inflammatory effect\nA group of five Wistar-strain male rats (100-150 g) were orally administered with each test compound suspended in 0.5 % tragacanth-saline solution. After 30 minutes 0.5 %-1.0 % carrageenin suspended in the water for injection was injected subcutaneously to a hind paw. After 3 hours the carrageenin edema was measured by volume and the inhibition percentage was determined with respect to the results for the control animals. The inhibition percentages were shown with the notations as follows: […]"}, "dd-strain male mice": {"test_system": "dd-strain male mice", "conditions": "72 hours", "protocol": "The lethal dose was estimated from the death of animals 72 hours after administration."}, "[2]": {"assay": "Analgetic effect (acetic acid writhing syndrome)", "type": "in vivo, dd-strain male mice", "conditions": "Mus musculus, ip, mice"}, "[3]": {"assay": "Analgetic effect (acetic acid writhing syndrome)", "type": "in vivo, dd-strain male mice", "conditions": "Mus musculus, po; orally, mice, acetic acid writhing", "protocol": "Each test compound suspended in 0.5 % tragacanth-saline solution was orally administered to dd-strain male mice (18-20 g). After one hour 0.6% acetic acid solution was intraperitoneally injected in a volume of 0.1 ml/10 g."}}, "note": "Where two headings read alike, the source gives them in different places."}
{"molecule": "Cc1c(N(C)C)c(=O)n(-c2ccccc2)n1C", "note": "[aminopyrine, reference compound]", "values": [{"measurement": "inhibition in vivo at 10 mg/kg", "setting": "[1]", "result": "< 15", "unit": "%"}, {"measurement": "inhibition in vivo at 50 mg/kg", "setting": "[1]", "result": "< 15", "unit": "%"}, {"measurement": "acute toxicity (lethal dose)", "setting": "dd-strain male mice; i.p.", "result": "100 to 300", "unit": "mg/kg"}, {"measurement": "ED50", "setting": "[2]", "result": 56, "unit": "mg/kg"}]}
{"molecule": "CCOC(=O)Cn1c(=O)c2cccnc2n(-c2cccc([N+](=O)[O-])c2)c1=O", "note": "[Compound 27]", "values": [{"measurement": "ED50", "setting": "[3]", "result": 45, "unit": "mg/kg"}, {"measurement": "inhibition in vivo at 10 mg/kg", "setting": "[1]", "result": "31 to 45", "unit": "%"}, {"measurement": "inhibition in vivo at 20 mg/kg", "setting": "[1]", "result": "31 to 45", "unit": "%"}, {"measurement": "inhibition in vivo at 50 mg/kg", "setting": "[1]", "result": "46 to 60", "unit": "%"}, {"measurement": "inhibition in vivo at 100 mg/kg", "setting": "[1]", "result": "46 to 60", "unit": "%"}, {"measurement": "acute toxicity (lethal dose)", "setting": "dd-strain male mice; i.p.", "result": 1000, "unit": "mg/kg"}, {"measurement": "acute toxicity (lethal dose)", "setting": "dd-strain male mice; p.o.", "result": "> 2000", "unit": "mg/kg"}]}
{"molecule": "O=c1c2cccnc2n(-c2cccc([N+](=O)[O-])c2)c(=O)n1CCCl", "note": "[Compound 14]", "values": [{"measurement": "ED50", "setting": "[3]", "result": 0.19, "unit": "mg/kg"}, {"measurement": "inhibition in vivo at 10 mg/kg", "setting": "[1]", "result": "46 to 60", "unit": "%"}, {"measurement": "inhibition in vivo at 20 mg/kg", "setting": "[1]", "result": "> 61", "unit": "%"}, {"measurement": "inhibition in vivo at 50 mg/kg", "setting": "[1]", "result": "46 to 60", "unit": "%"}, {"measurement": "inhibition in vivo at 100 mg/kg", "setting": "[1]", "result": "> 61", "unit": "%"}, {"measurement": "acute toxicity (lethal dose)", "setting": "dd-strain male mice; i.p.", "result": "> 1000", "unit": "mg/kg"}, {"measurement": "acute toxicity (lethal dose)", "setting": "dd-strain male mice; p.o.", "result": "> 2000", "unit": "mg/kg"}]}
{"molecule": "O=C(O)Cn1c(=O)c2cccnc2n(-c2cccc([N+](=O)[O-])c2)c1=O", "note": "[Compound 26]", "values": [{"measurement": "ED50", "setting": "[3]", "result": 33, "unit": "mg/kg"}, {"measurement": "inhibition in vivo at 20 mg/kg", "setting": "[1]", "result": "16 to 30", "unit": "%"}, {"measurement": "inhibition in vivo at 50 mg/kg", "setting": "[1]", "result": "31 to 45", "unit": "%"}, {"measurement": "acute toxicity (lethal dose)", "setting": "dd-strain male mice; i.p.", "result": "> 1000", "unit": "mg/kg"}, {"measurement": "acute toxicity (lethal dose)", "setting": "dd-strain male mice; p.o.", "result": "> 2000", "unit": "mg/kg"}]}
